{"source": "patent US8012975B2", "about": "“Antitumoral analogs of ET-743” (Pharma Mar, S.A., priority 2000, dated 2011)", "key": {"[1]": {"test_system": "P-388", "experiment": "Cytotoxic activity IC50, P-388", "settings": "Mus musculus, P388, read-out: CYTOTOXIC ACTIVITIY IC50 (μM) P-388"}, "[2]": {"test_system": "A-549", "experiment": "Cytotoxic activity IC50, A-549", "settings": "Homo sapiens"}, "[3]": {"test_system": "HT-29", "experiment": "Cytotoxic activity IC50, HT-29", "settings": "Homo sapiens"}, "[4]": {"test_system": "MEL-28", "experiment": "Cytotoxic activity IC50, MEL-28", "settings": "Homo sapiens"}, "[5]": {"test_system": "DU-145", "experiment": "Cytotoxic activity IC50, DU-145", "settings": "Homo sapiens"}, "[6]": {"settings": "A549, read-out: CYTOTOXIC ACTIVITIY IC50 (μM) A-549, A-549"}, "[7]": {"settings": "HT-29, read-out: CYTOTOXIC ACTIVITIY IC50 (μM) HT-29, HT-29"}, "[8]": {"settings": "SK-MEL-28, read-out: CYTOTOXIC ACTIVITIY IC50 (μM) MEL-28, MEL-28"}, "[9]": {"settings": "DU-145, read-out: CYTOTOXIC ACTIVITIY IC50 (μM) DU-145, DU-145"}}, "note": "Read-outs that look alike come from different tables or passages of the source."}
{"smiles": "C=CCOC(=O)Oc1c(C)c2c(c3c1CC1[C@H]4c5c(cc(C)c(OC)c5OCOC)C[C@@H]([C@H](C#N)N1[C@H]3CNC(=O)[C@H](C)NC(=O)OC(C)(C)C)N4C)OCO2", "note": "(stereo partly drawn)", "values": [{"measurement": "IC50", "setting": "[1]", "result": 0.06, "unit": "µM"}, {"measurement": "IC50", "setting": "[2]; [6]", "result": 0.06, "unit": "µM"}, {"measurement": "IC50", "setting": "[3]; [7]", "result": 0.06, "unit": "µM"}, {"measurement": "IC50", "setting": "[4]; [8]", "result": 0.06, "unit": "µM"}, {"measurement": "IC50", "setting": "[5]; [9]", "result": 0.06, "unit": "µM"}]}
{"smiles": "COc1c(C)cc2c(c1O)[C@@H]1C3Cc4c(OC(C)=O)c(C)c5c(c4[C@H](CNC(=O)[C@@H](C)NC(=O)CC(C)C)N3[C@@H](O)[C@H](C2)N1C)OCO5", "note": "(stereo partly drawn)", "values": [{"measurement": "IC50", "setting": "[1]", "result": 0.001, "unit": "µM"}, {"measurement": "IC50", "setting": "[2]; [6]", "result": 0.001, "unit": "µM"}, {"measurement": "IC50", "setting": "[3]; [7]", "result": 0.001, "unit": "µM"}, {"measurement": "IC50", "setting": "[4]; [8]", "result": 0.001, "unit": "µM"}, {"measurement": "IC50", "setting": "[5]; [9]", "result": 0.001, "unit": "µM"}]}
{"smiles": "COc1c(C)cc2c(c1OC(C)=O)[C@@H]1C3Cc4c(OC(=O)CCl)c(C)c5c(c4[C@H](CNC(=O)CCc4ccccc4)N3[C@@H](C#N)[C@H](C2)N1C)OCO5", "note": "(stereo partly drawn)", "values": [{"measurement": "IC50", "setting": "[1]", "result": 0.01, "unit": "µM"}, {"measurement": "IC50", "setting": "[2]; [6]", "result": 0.01, "unit": "µM"}, {"measurement": "IC50", "setting": "[3]; [7]", "result": 0.01, "unit": "µM"}, {"measurement": "IC50", "setting": "[4]; [8]", "result": 0.01, "unit": "µM"}, {"measurement": "IC50", "setting": "[5]; [9]", "result": 0.01, "unit": "µM"}]}
{"smiles": "COc1c(C)cc2c(c1O)[C@@H]1C3Cc4c(OC(=O)C(F)(F)C(F)(F)C(F)(F)F)c(C)c5c(c4[C@H](CNC(=O)CCc4ccccc4)N3[C@@H](C#N)[C@H](C2)N1C)OCO5", "note": "(stereo partly drawn)", "values": [{"measurement": "IC50", "setting": "[1]", "result": 0.006, "unit": "µM"}, {"measurement": "IC50", "setting": "[2]; A549, read-out: CYTOTOXIC ACTIVITIY IC50 (μM) A-549", "result": 0.006, "unit": "µM"}, {"measurement": "IC50", "setting": "[3]; HT-29, read-out: CYTOTOXIC ACTIVITIY IC50 (μM) HT-29", "result": 0.006, "unit": "µM"}, {"measurement": "IC50", "setting": "[4]; SK-MEL-28, read-out: CYTOTOXIC ACTIVITIY IC50 (μM) MEL-28", "result": 0.006, "unit": "µM"}, {"measurement": "IC50", "setting": "[5]; DU-145, read-out: CYTOTOXIC ACTIVITIY IC50 (μM) DU-145", "result": 0.006, "unit": "µM"}]}
{"smiles": "CCCCC(=O)NC[C@H]1c2c(c(OC(C)=O)c(C)c3c2OCO3)CC2[C@H]3c4c(cc(C)c(OC)c4O)C[C@@H]([C@H](C#N)N21)N3C", "note": "(stereo partly drawn)", "values": [{"measurement": "IC50", "setting": "[1]", "result": 0.007, "unit": "µM"}, {"measurement": "IC50", "setting": "[2]; [6]", "result": 0.007, "unit": "µM"}, {"measurement": "IC50", "setting": "[3]; [7]", "result": 0.007, "unit": "µM"}, {"measurement": "IC50", "setting": "[4]; [8]", "result": 0.007, "unit": "µM"}, {"measurement": "IC50", "setting": "[5]; [9]", "result": 0.007, "unit": "µM"}]}
{"smiles": "COC1=C(C)C(=O)C2=C(C1=O)[C@H](CNC(=O)[C@H](C)NC(C)=O)N1C(C2)[C@H]2c3c(cc(C)c(OC)c3O)C[C@@H]([C@@H]1C#N)N2C", "note": "(stereo partly drawn)", "values": [{"measurement": "IC50", "setting": "[1]", "result": 0.08, "unit": "µM"}, {"measurement": "IC50", "setting": "[2]; [6]", "result": 0.08, "unit": "µM"}, {"measurement": "IC50", "setting": "[3]; [7]", "result": 0.08, "unit": "µM"}, {"measurement": "IC50", "setting": "[4]; [8]", "result": 0.08, "unit": "µM"}, {"measurement": "IC50", "setting": "[5]; [9]", "result": 0.08, "unit": "µM"}]}
{"smiles": "C=CCOC(=O)Oc1c(C)c2c(c3c1CC1[C@H]4c5c(cc(C)c(OC)c5O)C[C@@H]([C@H](C#N)N1[C@H]3CNC(=O)[C@H](C)NC(=S)Nc1ccccc1)N4C)OCO2", "note": "(stereo partly drawn)", "values": [{"measurement": "IC50", "setting": "[1]", "result": 0.001, "unit": "µM"}, {"measurement": "IC50", "setting": "[2]; [6]", "result": 0.001, "unit": "µM"}, {"measurement": "IC50", "setting": "[3]; [7]", "result": 0.001, "unit": "µM"}, {"measurement": "IC50", "setting": "[4]; [8]", "result": 0.001, "unit": "µM"}, {"measurement": "IC50", "setting": "[5]; [9]", "result": 0.001, "unit": "µM"}]}
{"smiles": "COCOc1c(OC)c(C)cc2c1[C@@H]1C3Cc4c(OC(=O)C(F)(F)F)c(C)c5c(c4[C@H](CNC(=O)CCc4ccccc4)N3[C@@H](C#N)[C@H](C2)N1C)OCO5", "note": "(stereo partly drawn)", "values": [{"measurement": "IC50", "setting": "[1]", "result": 0.5, "unit": "µM"}, {"measurement": "IC50", "setting": "[2]; [6]", "result": 0.5, "unit": "µM"}, {"measurement": "IC50", "setting": "[3]; [7]", "result": 0.5, "unit": "µM"}, {"measurement": "IC50", "setting": "[4]; [8]", "result": 0.5, "unit": "µM"}, {"measurement": "IC50", "setting": "[5]; [9]", "result": 0.5, "unit": "µM"}]}
{"smiles": "C=CCOC(=O)Oc1c(C)c2c(c3c1CC1[C@H]4c5c(cc(C)c(OC)c5O)C[C@@H]([C@H](C#N)N1[C@H]3CNC(=O)OCC(Cl)(Cl)Cl)N4C)OCO2", "note": "(stereo partly drawn)", "values": [{"measurement": "IC50", "setting": "[1]", "result": 0.006, "unit": "µM"}, {"measurement": "IC50", "setting": "[2]; [6]", "result": 0.006, "unit": "µM"}, {"measurement": "IC50", "setting": "[3]; [7]", "result": 0.006, "unit": "µM"}, {"measurement": "IC50", "setting": "[4]; [8]", "result": 0.006, "unit": "µM"}, {"measurement": "IC50", "setting": "[5]; [9]", "result": 0.006, "unit": "µM"}]}
{"smiles": "COc1c(C)cc2c(c1O)[C@@H]1C3Cc4c(OC(C)=O)c(C)c5c(c4[C@H](CNC(=O)Cc4ccccc4)N3[C@@H](O)[C@H](C2)N1C)OCO5", "note": "(stereo partly drawn) [drawing 124]", "values": [{"measurement": "IC50", "setting": "[1]", "result": 0.0007, "unit": "µM"}, {"measurement": "IC50", "setting": "[2]; [6]", "result": 0.0007, "unit": "µM"}, {"measurement": "IC50", "setting": "[3]; [7]", "result": 0.0007, "unit": "µM"}, {"measurement": "IC50", "setting": "[4]; [8]", "result": 0.0007, "unit": "µM"}, {"measurement": "IC50", "setting": "[5]; [9]", "result": 0.0007, "unit": "µM"}]}
{"smiles": "CCCC(=O)OC[C@H]1c2c(c(O)c(C)c3c2OCO3)CC2[C@H]3c4c(cc(C)c(OC)c4OCOC)C[C@@H]([C@H](C#N)N21)N3C", "note": "(stereo partly drawn)", "values": [{"measurement": "IC50", "setting": "[1]", "result": 0.1, "unit": "µM"}, {"measurement": "IC50", "setting": "[2]; [6]", "result": 0.1, "unit": "µM"}, {"measurement": "IC50", "setting": "[3]; [7]", "result": 0.1, "unit": "µM"}, {"measurement": "IC50", "setting": "[4]; [8]", "result": 0.1, "unit": "µM"}, {"measurement": "IC50", "setting": "[5]; [9]", "result": 0.1, "unit": "µM"}]}
{"smiles": "COc1c(C)cc2c(c1O)[C@@H]1C3Cc4c(OC(C)=O)c(C)c5c(c4[C@H](CNC(=O)[C@@H](NC(=O)OCc4ccccc4)C(C)C)N3[C@@H](C#N)[C@H](C2)N1C)OCO5", "note": "(stereo partly drawn)", "values": [{"measurement": "IC50", "setting": "[1]", "result": 0.001, "unit": "µM"}, {"measurement": "IC50", "setting": "[2]; [6]", "result": 0.001, "unit": "µM"}, {"measurement": "IC50", "setting": "[3]; [7]", "result": 0.001, "unit": "µM"}, {"measurement": "IC50", "setting": "[4]; [8]", "result": 0.001, "unit": "µM"}, {"measurement": "IC50", "setting": "[5]; [9]", "result": 0.001, "unit": "µM"}]}
{"smiles": "COc1c(C)cc2c(c1O)[C@@H]1C3Cc4c(O)c(C)c5c(c4[C@H](CNC(=O)/C=C/c4ccccc4)N3[C@@H](C#N)[C@H](C2)N1C)OCO5", "note": "(stereo partly drawn)", "values": [{"measurement": "IC50", "setting": "[1]", "result": 0.001, "unit": "µM"}, {"measurement": "IC50", "setting": "[2]; [6]", "result": 0.001, "unit": "µM"}, {"measurement": "IC50", "setting": "[3]; [7]", "result": 0.001, "unit": "µM"}, {"measurement": "IC50", "setting": "[4]; [8]", "result": 0.001, "unit": "µM"}, {"measurement": "IC50", "setting": "[5]; [9]", "result": 0.001, "unit": "µM"}]}
{"smiles": "COCOc1c(OC)c(C)cc2c1[C@@H]1C3Cc4c(OC(C)=O)c(C)c5c(c4[C@H](COC(=O)CCc4ccccc4)N3[C@@H](C#N)[C@H](C2)N1C)OCO5", "note": "(stereo partly drawn)", "values": [{"measurement": "IC50", "setting": "[1]", "result": 0.1, "unit": "µM"}, {"measurement": "IC50", "setting": "[2]; [6]", "result": 0.1, "unit": "µM"}, {"measurement": "IC50", "setting": "[3]; [7]", "result": 0.1, "unit": "µM"}, {"measurement": "IC50", "setting": "[4]; [8]", "result": 0.1, "unit": "µM"}, {"measurement": "IC50", "setting": "[5]; [9]", "result": 0.1, "unit": "µM"}]}
{"smiles": "C=CCOc1c(C)c2c(c3c1CC1[C@H]4c5c(cc(C)c(OC)c5OCOC)C[C@@H]([C@H](C#N)N1[C@H]3CO)N4C)OCO2", "note": "(stereo partly drawn)", "values": [{"measurement": "IC50", "setting": "[1]", "result": 0.2, "unit": "µM"}, {"measurement": "IC50", "setting": "[2]; [6]", "result": 0.2, "unit": "µM"}, {"measurement": "IC50", "setting": "[3]; [7]", "result": 0.2, "unit": "µM"}, {"measurement": "IC50", "setting": "[4]; [8]", "result": 0.2, "unit": "µM"}, {"measurement": "IC50", "setting": "[5]; [9]", "result": 0.2, "unit": "µM"}]}
